Key:
MPTP-treated mice = experiment: Anti-Parkinsonian activity: motor activity of MPTP-treated mice with/without a subthreshold dose of L-Dopa; assay type: in vivo, C57 BL/6 mice; details: for LOCOMOTION / REARING / TOTAL ACTIVITY: mean ± SD
Protocol: Evaluation of the anti-Parkinsonian activity using MPTP-treated mice with/without a subthreshold dose of L-Dopa
Animals: six month old male C57 BL/6 mice, weighing 22-25 g were used. Following arrival at the laboratory, the mice were allowed to acclimatise for two weeks in a room with controlled temperature (21±1° C.), and a constant light-dark schedule (12 hr on/12 hr off, lights on between 06.00 and 18.00 hrs). Free access to food and water was maintained throughout. They were housed in groups of 12 animals and tested only during the hours of light (08.00-15.00 hrs). All testing was performed in a normally lighted room. Each test chamber (i.e. activity test cage) was placed in a soundproofed wooden box with 12 cm thick walls and front panels and had dimmed lighting.
Behavioral measurements and apparatus: An automated device, consisting of macrolon rodent test cages (40×25×15 cm) each placed within two series of infra-red beams (at two different heights, one low and one high, 2 and 8 cm, respectively, above the surface of the sawdust, 1 cm deep), was used to measure spontaneous and/or drug-induced motor activity of MPTP and control mice. The following parameters were measured: LOCOMOTION was measured by the low grid of infrared beams. Counts were registered only when the mouse in the horizontal plane, ambulating around the test-cage. REARING was registered throughout the time when at least one high level beam was interrupted, i.e. the number of counts registered was proportional to the amount of time spent rearing. TOTAL ACTIVITY was measured by a sensor (a pick-up similar to a gramophone needle, mounted on a lever with a counterweight) with which the test cage was constantly in contact. The sensor registered all types of vibration received from the test cage, such as those produced both by locomotion and rearing as well as shaking, tremors, scratching and grooming.
Behavioral measurements (locomotion, rearing and total activity): Twelve days after MPTP injections (2×40 mg/kg, s.c., 24 hr interval), the mice were injected i.p with 2-(2-aminobenzoyl)-N-(2,4-dinitrophenyl)ethylamine (0.3, 1, 3, 10 mg/kg) or vehicle (10% DMSO, 1% CMC) and immediately thereafter placed in the activity test chambers and their motor behaviour were monitored for 60 min. After 60 min, the mice were injected with 5 mg/kg L-Dopa (s.c) and then replaced in the test chamber and activity measurements maintained for a further 240 min. Each dose was separated by two days, starting from the lowest dose.
Table 1 presents the mean (± standard deviations) locomotion, rearing and total activity counts of MPTP-treated and control mice administered either 2-(2-aminobenzoyl)-N-(2,4-dinitrophenyl)ethylamine or vehicle administered with a subthreshold dose of L-Dopa. 1 % level of significance is represented by an asterisk (Tukey HSD test).

NMDA receptors = experiment: Electrophysiological characterisation of NMDA-activated currents in freshly isolated hippocampal neurones (whole-cell patch clamp); assay type: cell-based; details: rat hippocampal neurones
Protocol: Electrophysiological characterisation of NMDA-activated currents in freshly isolated hippocampal neurones of rat.
Isolation of hippocampal neurons: Wistar rats (12-14 days) were decapitated without anaesthesia and the hippocampus was removed. It was manually cut into slices (0.2-0.4 mm), in a solution containing (mM): 150 NaCl; 5 KCl; 1.25 NaH2PO4; 2 CaCl2; 2 MgCl2; 26 NaHCO3; 20 glucose. Slices were preincubated in this solution for 30 min at room temperature. The enzymatic treatment proceeded in the same solution with lower Ca2+ concentration (0.5 mm) containing 0.4 mg/ml protease from aspergillus oryzae. The incubation in the enzyme solution proceeded at 32° C. within 10 min. […]
Current recording and data analysis: The drug-containing solutions were applied by the fast “concentration clamp” method using “jumping table” set-up (Pharma Robot, Kiev). The currents were recorded with patch clamp technique in the whole-cell configuration. […]
NMDA-activated currents: The currents were filtered at 3 kHz (three-pole active Bessel filter) digitally sampled at the rate […] for NMDA activated currents. NMDA-induced transmembrane currents were measured in the presence of 10 μM glycine and 300 μM L-aspartate in the control and test solutions. The currents were recorded at holding potential −70 mV. […]

[1] = MPTP mice, 0.3 mg/kg i.p. with subthreshold L-Dopa 5 mg/kg s.c.
[2] = MPTP mice, 1 mg/kg i.p. with subthreshold L-Dopa 5 mg/kg s.c., * 1% significance
[3] = MPTP mice, 3 mg/kg i.p. with subthreshold L-Dopa 5 mg/kg s.c., * 1% significance
[4] = MPTP mice, 10 mg/kg i.p. with subthreshold L-Dopa 5 mg/kg s.c., * 1% significance

Nc1ccccc1C(=O)CCNc1ccc([N+](=O)[O-])cc1[N+](=O)[O-] [2-(2-aminobenzoyl)-N-(2,4-dinitrophenyl)ethylamine]
locomotion, rearing and total activity of MPTP-treated mice (MPTP-treated mice; 1, 3 or 10 mg/kg, compared to the MPTP vehicle group): improved significantly | LOCOMOTION (MPTP-treated mice; [1]): 273 ± 64 counts | REARING (MPTP-treated mice; [1]): 290 ± 73 counts | TOTAL ACTIVITY (MPTP-treated mice; [1]): 5160 ± 1093 counts | LOCOMOTION (MPTP-treated mice; [2]): 473 ± 108 counts | REARING (MPTP-treated mice; [2]): 582 ± 145 counts | TOTAL ACTIVITY (MPTP-treated mice; [2]): 6250 ± 625 counts | LOCOMOTION (MPTP-treated mice; [3]): 510 ± 107 counts | REARING (MPTP-treated mice; [3]): 731 ± 110 counts | TOTAL ACTIVITY (MPTP-treated mice; [3]): 6563 ± 781 counts | LOCOMOTION (MPTP-treated mice; [4]): 470 ± 110 counts | REARING (MPTP-treated mice; [4]): 619 ± 102 counts | TOTAL ACTIVITY (MPTP-treated mice; [4]): 6250 ± 625 counts | effect on motor behaviour in the first 60-min period before L-Dopa (MPTP-treated mice; MPTP mice, any dose (0.3-10 mg/kg i.p.), compared to MPTP-treated vehicle mice): no effect at any dose | all three behavioural parameters when administered together with a subthreshold dose of L-Dopa (MPTP-treated mice; MPTP mice, with L-Dopa 5 mg/kg s.c.): improved significantly | effect on motor variables in vehicle control animals (MPTP-treated mice; vehicle control (non-MPTP) animals): no effects in any variable | activity on NMDA receptors (NMDA receptors): blocking activity

Source: patent US8309767B2, “2-aminobenzoyl derivatives” (Neurim Pharmaceuticals (1991) Ltd., priority 2003, dated 2012)
